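48-hour exposure; five concentrations; linearly interpolated endpoints. Here, GI50 denotes the concentration required for 50% inhibition of growth.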 The source made the active and inactive calls. Rule as the data show it: active = GI50 up to about 1.1 µM and inactive = higher.
Experiments:
Assay in all cases: growth of human tumour cells (NCI), 48 h
SK-MEL-2 = tested on: SK-MEL-2
SNB-75 = tested on: SNB-75
A549 = tested on: A549
LXFL 529 = tested on: LXFL 529
HT-29 = tested on: HT-29
RXF 631 = tested on: RXF 631
SF-295 = tested on: SF-295
RPMI-8226 = tested on: RPMI-8226
M19-MEL = tested on: M19-MEL
EKVX = tested on: EKVX
KM12 = tested on: KM12
SW-620 = tested on: SW-620
UO-31 = tested on: UO-31
LOX IMVI = tested on: LOX IMVI
786-0 = tested on: 786-0
MOLT-4 = tested on: MOLT-4
NCI-H522 = tested on: NCI-H522
OVCAR-5 = tested on: OVCAR-5
RXF 393 = tested on: RXF 393
IGROV-1 = tested on: IGROV-1
KM-20L2 = tested on: KM-20L2
DLD-1 = tested on: DLD-1
OVCAR-8 = tested on: OVCAR-8
SF-539 = tested on: SF-539
M14 = tested on: M14
NCI-H460 = tested on: NCI-H460
DMS-114 = tested on: DMS-114
CCRF-CEM = tested on: CCRF-CEM
HOP-62 = tested on: HOP-62
SNB-78 = tested on: SNB-78
A498 = tested on: A498
K562 = tested on: K562
HCC 2998 = tested on: HCC 2998
NCI-H226 = tested on: NCI-H226
XF498 = tested on: XF498
SK-MEL-5 = tested on: SK-MEL-5
SF-268 = tested on: SF-268
DMS-273 = tested on: DMS-273
CAKI-1 = tested on: CAKI-1
Malme-3M = tested on: Malme-3M
HCT-15 = tested on: HCT-15
SN12C = tested on: SN12C
UACC-257 = tested on: UACC-257
TK-10 = tested on: TK-10
U-251 = tested on: U-251
OVCAR-3 = tested on: OVCAR-3
UACC-62 = tested on: UACC-62
ACHN = tested on: ACHN
COLO 205 = tested on: COLO 205
SK-OV-3 = tested on: SK-OV-3
HCT-116 = tested on: HCT-116
SNB-19 = tested on: SNB-19
HOP-92 = tested on: HOP-92
HL-60 = tested on: HL-60
HOP-18 = tested on: HOP-18
SR = tested on: SR
NCI-H23 = tested on: NCI-H23
OVCAR-4 = tested on: OVCAR-4
SK-MEL-28 = tested on: SK-MEL-28

Measured: GI50

CNc1nnnn1C1OC(CO)C(O)C1O (centres undefined)
> 100 µM: HCT-15
inactive: SK-MEL-2 > 100 µM | SNB-75 > 100 µM | A549 > 100 µM | LXFL 529 > 100 µM | HT-29 > 100 µM | RXF 631 > 100 µM | SF-295 > 100 µM | RPMI-8226 > 100 µM | M19-MEL > 100 µM | EKVX > 100 µM | KM12 > 100 µM | SW-620 > 100 µM | UO-31 > 100 µM | LOX IMVI > 100 µM | 786-0 > 100 µM | MOLT-4 > 100 µM | NCI-H522 > 100 µM | OVCAR-5 > 100 µM | RXF 393 43.9 µM | IGROV-1 > 100 µM | KM-20L2 > 100 µM | DLD-1 > 100 µM | OVCAR-8 > 100 µM | SF-539 > 100 µM | M14 > 100 µM | NCI-H460 > 100 µM | DMS-114 > 100 µM | CCRF-CEM > 100 µM | HOP-62 > 100 µM | SNB-78 > 100 µM | A498 > 100 µM | K562 > 100 µM | HCC 2998 > 100 µM | NCI-H226 > 100 µM | XF498 14.2 µM | SK-MEL-5 > 100 µM | SF-268 > 100 µM | DMS-273 > 100 µM | CAKI-1 > 100 µM | Malme-3M > 100 µM | SN12C > 100 µM | UACC-257 > 100 µM | TK-10 > 100 µM | U-251 > 100 µM | OVCAR-3 > 100 µM | UACC-62 > 100 µM | ACHN > 100 µM | COLO 205 > 100 µM | SK-OV-3 > 100 µM | HCT-116 > 100 µM

N#CC12CCC1C1CCCCC12N1CCSCC1 (centres undefined)
inactive: SK-MEL-2 35.4 µM | SNB-75 > 100 µM | A549 > 100 µM | LXFL 529 > 100 µM | HT-29 > 100 µM | SF-295 > 100 µM | SNB-19 > 100 µM | RPMI-8226 51.1 µM | M19-MEL > 100 µM | KM12 92.3 µM | SW-620 > 100 µM | UO-31 > 100 µM | 786-0 > 100 µM | MOLT-4 81.8 µM | HOP-92 > 100 µM | RXF 393 18.1 µM | HL-60 16.3 µM | IGROV-1 > 100 µM | KM-20L2 > 100 µM | DLD-1 > 100 µM | OVCAR-8 > 100 µM | SF-539 > 100 µM | NCI-H460 > 100 µM | DMS-114 > 100 µM | CCRF-CEM > 100 µM | HOP-18 > 100 µM | HOP-62 > 100 µM | SNB-78 > 100 µM | A498 > 100 µM | K562 76.6 µM | HCC 2998 > 100 µM | SR 60.5 µM | XF498 > 100 µM | DMS-273 > 100 µM | CAKI-1 > 100 µM | NCI-H23 > 10 µM | SN12C > 100 µM | UACC-257 > 10 µM | OVCAR-4 > 10 µM | U-251 > 100 µM | OVCAR-3 > 100 µM | UACC-62 > 100 µM | ACHN > 100 µM | COLO 205 > 100 µM | SK-MEL-28 > 100 µM | HCT-116 > 100 µM
> 100 µM: HCT-15

CN(C)CCCCC1CCN(CC(=O)N2c3ccccc3NC(=O)c3ccccc32)CC1
inactive: SK-MEL-2 > 100 µM | SNB-75 > 100 µM | A549 > 100 µM | LXFL 529 > 100 µM | HT-29 61.2 µM | RXF 631 > 100 µM | SF-295 > 100 µM | SNB-19 > 100 µM | RPMI-8226 > 100 µM | M19-MEL > 100 µM | EKVX > 100 µM | KM12 > 100 µM | SW-620 > 100 µM | UO-31 > 100 µM | 786-0 > 100 µM | MOLT-4 > 100 µM | NCI-H522 > 100 µM | HOP-92 > 100 µM | HL-60 > 100 µM | DLD-1 > 100 µM | OVCAR-8 > 100 µM | SF-539 > 100 µM | M14 28.1 µM | DMS-114 > 100 µM | CCRF-CEM 69.8 µM | HOP-62 > 100 µM | SNB-78 > 100 µM | A498 > 100 µM | K562 > 100 µM | HCC 2998 > 100 µM | SR > 100 µM | NCI-H226 > 100 µM | XF498 > 100 µM | SK-MEL-5 > 100 µM | SF-268 > 100 µM | DMS-273 > 100 µM | CAKI-1 > 100 µM | Malme-3M > 100 µM | NCI-H23 > 100 µM | SN12C > 100 µM | UACC-257 > 100 µM | TK-10 > 100 µM | OVCAR-4 > 100 µM | OVCAR-3 > 100 µM | UACC-62 > 100 µM | COLO 205 > 100 µM | SK-MEL-28 > 100 µM | SK-OV-3 > 100 µM | HCT-116 > 100 µM

COc1ccc2cc1Oc1ccc(cc1)C[C@@H]1c3cc(c(OC)cc3CCN1C)Oc1c(OC)c(OC)cc3c1[C@@H](C2)N(C)CC3 [PHAEANTHINE]
15.6 µM: HCT-15
inactive: SNB-75 9.73 µM | LXFL 529 18.7 µM | RXF 631 14.1 µM | SF-295 17.5 µM | SNB-19 16.9 µM | RPMI-8226 15.6 µM | NCI-H522 15.7 µM | HOP-92 13.2 µM | RXF 393 1.6 µM | HL-60 16.7 µM | IGROV-1 19.8 µM | KM-20L2 6.56 µM | DLD-1 24.8 µM | OVCAR-8 14.9 µM | SF-539 10.9 µM | M14 1.98 µM | NCI-H460 14.3 µM | CCRF-CEM 14.3 µM | HOP-62 18.9 µM | SNB-78 16.6 µM | A498 18.5 µM | K562 2.11 µM | HCC 2998 15.8 µM | SR 15.9 µM | XF498 6.98 µM | SK-MEL-5 17.2 µM | SF-268 25 µM | DMS-273 17.3 µM | NCI-H23 17.6 µM | UACC-257 14.9 µM | TK-10 19.2 µM | U-251 13.2 µM | OVCAR-3 15.7 µM | ACHN 19.2 µM | SK-OV-3 24.7 µM | HCT-116 2.83 µM
